# Measurements taken from PubChem BioAssay (NCI).
# Several values for one entry are separate records, joined by “and”; a condition that tells them apart may be missing. Equal entries are not always repeated.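 Values below derive from 48-hour exposures of cells grown in 96-well plates, with endpoints linearly interpolated between the two concentrations bracketing the appropriate inhibition level. The concentration for 50% growth inhibition is given as GI50. TGI: concentration producing complete growth inhibition.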
# How the values were obtained:
# Test in all cases: NCI-60 cell line screen, 48 h
# [1] = system: SF-268 CNS
# [2] = system: HOP-62 NSCLC
# [3] = system: ACHN renal
# [4] = system: HCC-2998 colon
# [5] = system: MOLT-4 leukemia
# [6] = system: UACC-62 melanoma
# [7] = system: SK-MEL-2 melanoma
# [8] = system: COLO 205 colon
# [9] = system: HOP-92 NSCLC
# [10] = system: SF-295 CNS
Compound,TGI [1],TGI [2] [µM],TGI [3],GI50 [4],TGI [4],TGI [5],TGI [6],TGI [7],TGI [8],TGI [9],TGI [10],GI50 [1] [µM],GI50 [2] [µM],GI50 [3] [µM],GI50 [5] [µM],GI50 [6] [µM],GI50 [7] [µM],GI50 [8] [µM],GI50 [9] [µM],GI50 [10] [µM]
NCC(=O)OCN1C(=O)C2C3C=CC(C2C1=O)C1C2C(=O)N(COC(=O)CN)C(=O)C2C31 (centres undefined),41.1 µM and 48.6 µM,> 100,67.6 µM and 62.1 µM,31.2 µM and 69.9 µM,94.8 µM and > 100 µM,69.8 µM and 42.2 µM,50.5 µM and 56 µM,38.6 µM and 41.2 µM,36.4 µM and 32.2 µM,> 100 µM,> 100 µM,–,–,–,–,–,–,–,–,–
CCCCCCCCOC(=O)c1cc(O)c(O)c(O)c1,12.1 µM,20,13.8 µM,6 µM,18.6 µM,16.5 µM,15.3 µM,18.2 µM,24.8 µM,15.6 µM,8.47 µM,1.49,4.77,1.6,0.437,3.27,4.72,9.36,0.686,2.23
N#C/C(=C/c1cccs1)c1cccs1,> 100 µM,> 100,> 100 µM,> 100 µM,> 100 µM,> 100 µM,> 100 µM,> 100 µM,> 100 µM,> 100 µM,> 100 µM,> 100,> 100,> 100,> 100,> 100,> 100,> 100,27.8,> 100
COc1ccc(S(=O)(=O)N2CCCCC2)cc1NC(=O)c1[nH]c(C)c2c1CCCCC2=O,> 100 µM,> 100,> 100 µM,1.73 µM,11.1 µM,> 100 µM,7.74 µM,31 µM,26.4 µM,48.6 µM,> 100 µM,7.91,0.904,2.34,4.31,0.356,2.4,1.71,0.59,2.52
COc1cc2c(cc1OCCN1C(=O)c3cccc4cccc(c34)C1=O)N=C[C@@H]1CCCN1C2=O,15.3 µM,47.5,14.9 µM and 33 µM,14.5 µM,15.6 µM and 27.6 µM,11 µM and > 100 µM,14.9 µM and 37.5 µM,14.5 µM and 32.7 µM,15.1 µM and 30.6 µM,17.3 µM and 55.4 µM,50 µM and > 100 µM,–,–,19,42.2,17.8,16.6,14.9,19.5,32
C=C(C)[C@@H]1CC[C@]2(C)[C@H](CC=C3[C@@H]4CC(C)(C)CC[C@]4(C(=O)OC)CC[C@]32C)[C@@]1(C)CC/C(N)=N/O,4.76 µM,20.6,5.81 µM,1.86 µM,3.67 µM,5.25 µM,3.11 µM,3.95 µM,6.54 µM,3.2 µM,4.01 µM,1.96,4.44,2.05,2.09,1.52,1.78,2.46,1.42,1.79
